Reference: US7008905B2, “Method of combating undesired plant growth on cereals” (BASF Aktiengesellschaft, priority 2000, dated 2006)

Assays:
Assay type in all cases: in vivo
[1] = tested on: Triticum aestivum variety “Kanzler”; assay: Pre-emergence test, selectivity; conditions: 3 weeks after treatment, rating 0-100 (100=death), Table 4
Procedure: (§1) The pre-emergence tests involve spraying a liquid formulation of the compound onto the soil in which the seeds of the plant species mentioned above has recently been sown.
(§2) The soil used in the tests is a prepared horticultural loam. The formulations used in the tests are prepared from solutions of the test compounds in acetone containing 0.4% by weight of an alkylphenol/ethylene oxide condensate available under the trade mark TRITON X-155.
(§3) These acetone solutions are diluted with water and the resulting formulations applied at dosage levels corresponding to 15 g, 30 g, 60 g, 120 g or 240 g of active material per hectare in a volume equivalent to 900 liters per hectare. In these tests untreated sown soil is used as control. The herbicidal effects of the test compounds are assessed visually three weeks after spraying the soil and are recorded an a 0 to 100 scale. A rating 0 indicates growth as untreated control, a rating 100 indicates death. An increase of 10 unit an the linear scale approximates to a 10% increase in the level of effect. The results of the assessment are set out in Tables 1 to 4.

[2] = tested on: Triticum aestivum variety “Monopol”; assay: Pre-emergence test, selectivity; conditions: 3 weeks after treatment, rating 0-100 (100=death), Table 4
Procedure: as §1, §2, §3

[3] = tested on: grasses and broadleaf weeds; assay: Pre-emergence test, overall weed control
Procedure: as §1, §2, §3

VIOAR = assay: Pre-emergence test, weed control; conditions: 3 weeks after treatment, rating 0-100 (100=death), Table 3
Procedure: as §1, §2, §3

PAPRH = assay: Pre-emergence test, weed control; conditions: 3 weeks after treatment, rating 0-100 (100=death), Table 3
Procedure: as §1, §2, §3

wheat = assay: Pre-emergence test, tolerance in wheat; conditions: pre-emergence
Procedure: as §1, §2, §3

Lamium purpureum = assay: Pre-emergence test, weed control; conditions: 3 weeks after treatment, rating 0-100 (100=death), Table 3
Procedure: as §1, §2
(§4) In these tests untreated sown soil is used as control. The herbicidal effects of the test compounds are assessed visually three weeks after spraying the soil and are recorded an a 0 to 100 scale. A rating 0 indicates growth as untreated control, a rating 100 indicates death. An increase of 10 unit an the linear scale approximates to a 10% increase in the level of effect. The results of the assessment are set out in Tables 1 to 4.

Matricaria inodora = assay: Pre-emergence test, weed control; conditions: 3 weeks after treatment, rating 0-100 (100=death), Table 3
Procedure: as §1, §2, §4

Alopecurus myosuroides = assay: Pre-emergence test, weed control; conditions: 3 weeks after treatment, rating 0-100 (100=death), Table 3
Procedure: as §1, §2, §4

Setaria viridis = assay: Pre-emergence test, weed control; conditions: 3 weeks after treatment, rating 0-100 (100=death), Table 3
Procedure: as §1, §2, §4

Poa annua = assay: Pre-emergence test, weed control; conditions: 3 weeks after treatment, rating 0-100 (100=death), Table 3
Procedure: as §1, §2, §4

Veronica persica = assay: Pre-emergence test, weed control; conditions: 3 weeks after treatment, rating 0-100 (100=death), Table 3
Procedure: as §1, §2, §4

Stellaria media = assay: Pre-emergence test, weed control; conditions: 3 weeks after treatment, rating 0-100 (100=death), Table 3
Procedure: as §1, §2, §4

Lolium perenne = assay: Pre-emergence test, weed control; conditions: 3 weeks after treatment, rating 0-100 (100=death), Table 3
Procedure: as §1, §2, §4

Apera spica-venti = assay: Pre-emergence test, weed control; conditions: 3 weeks after treatment, rating 0-100 (100=death), Table 3
Procedure: as §1, §2, §4

Galium aparine = assay: Pre-emergence test, weed control; conditions: 3 weeks after treatment, rating 0-100 (100=death), Table 3
Procedure: as §1, §2, §4

FC(F)(F)c1ccc(-c2nccc(Oc3ccnc(Cl)c3)n2)cc1 [CTP, 4-(2-chloropyrid-4-yloxy)-2-(4-trifluoromethyl-phenyl)pyrimidine]
15: ALOMY weed control rating (Alopecurus myosuroides; 0.030 kg/ha)
95: LOLPE weed control rating (Lolium perenne; 0.060 kg/ha) | GALAP weed control rating (Galium aparine; 0.240 kg/ha)
90: LAMPU weed control rating (Lamium purpureum; 0.030 kg/ha)
98: MATIN weed control rating (Matricaria inodora; 0.030 kg/ha) | SETVI weed control rating (Setaria viridis; 0.030 kg/ha) | LOLPE weed control rating (Lolium perenne; 0.120 kg/ha)
80: STEME weed control rating (Stellaria media; 0.030 kg/ha)
5: TRZAWK rating (Selectivity) ([1]; 0.240 kg/ha) | TRZAWM rating (Selectivity) ([2]; 0.240 kg/ha)
10: GALAP weed control rating (Galium aparine; 0.030 kg/ha)
120 g/ha: dose at which complete control of all the grasses and broadleaf weeds was achieved [3]
2: TRZAWM rating (Selectivity) ([2]; 0.120 kg/ha)
65: GALAP weed control rating (Galium aparine; 0.060 kg/ha)
240 g/ha: maximum tolerated dose in wheat / dose at which sufficiently selective in wheat (wheat)
1: TRZAWK rating (Selectivity) ([1]; 0.120 kg/ha) | TRZAWM rating (Selectivity) ([2]; 0.060 kg/ha)
100: VIOAR weed control rating (VIOAR; 0.060 kg/ha) | VIOAR weed control rating (VIOAR; 0.120 kg/ha) | VIOAR weed control rating (VIOAR; 0.240 kg/ha) | PAPRH weed control rating (PAPRH; 0.030 kg/ha) | PAPRH weed control rating (PAPRH; 0.060 kg/ha) | PAPRH weed control rating (PAPRH; 0.120 kg/ha) | PAPRH weed control rating (PAPRH; 0.240 kg/ha) | LAMPU weed control rating (Lamium purpureum; 0.060 kg/ha) | LAMPU weed control rating (Lamium purpureum; 0.120 kg/ha) | LAMPU weed control rating (Lamium purpureum; 0.240 kg/ha) | MATIN weed control rating (Matricaria inodora; 0.240 kg/ha) | ALOMY weed control rating (Alopecurus myosuroides; 0.240 kg/ha) | SETVI weed control rating (Setaria viridis; 0.060 kg/ha) | SETVI weed control rating (Setaria viridis; 0.120 kg/ha) | SETVI weed control rating (Setaria viridis; 0.240 kg/ha) | POAAN weed control rating (Poa annua; 0.030 kg/ha) | POAAN weed control rating (Poa annua; 0.060 kg/ha) | POAAN weed control rating (Poa annua; 0.120 kg/ha) | POAAN weed control rating (Poa annua; 0.240 kg/ha) | VERPE weed control rating (Veronica persica; 0.030 kg/ha) | VERPE weed control rating (Veronica persica; 0.060 kg/ha) | VERPE weed control rating (Veronica persica; 0.120 kg/ha) | VERPE weed control rating (Veronica persica; 0.240 kg/ha) | STEME weed control rating (Stellaria media; 0.060 kg/ha) | STEME weed control rating (Stellaria media; 0.120 kg/ha) | STEME weed control rating (Stellaria media; 0.240 kg/ha) | LOLPE weed control rating (Lolium perenne; 0.240 kg/ha) | APESV weed control rating (Apera spica-venti; 0.030 kg/ha) | APESV weed control rating (Apera spica-venti; 0.060 kg/ha) | APESV weed control rating (Apera spica-venti; 0.120 kg/ha) | APESV weed control rating (Apera spica-venti; 0.240 kg/ha)
35: ALOMY weed control rating (Alopecurus myosuroides; 0.060 kg/ha)
99: VIOAR weed control rating (VIOAR; 0.030 kg/ha) | MATIN weed control rating (Matricaria inodora; 0.060 kg/ha) | MATIN weed control rating (Matricaria inodora; 0.120 kg/ha) | ALOMY weed control rating (Alopecurus myosuroides; 0.120 kg/ha)
93: LOLPE weed control rating (Lolium perenne; 0.030 kg/ha) | GALAP weed control rating (Galium aparine; 0.120 kg/ha)
